# Earlier results in patent US4690936A (priority 1980, dated 1987).
# Non-standard residues stand in square brackets, D forms with d. Residues, ends and D or L forms follow the SMILES beside them. No end group written: not given here. pGlu = O=C1CC[C@@H](C(=O)O)N1
# Test system: ACE
# Conditions: competitive substrate rather than true inhibitor
row,Molecule,type of ACE interaction (lower Km than angiotensin I)
1,RPPGFSPFR [bradykinin],competitive substrates
2,"C[C@H](NC(=O)[C@H](Cc1c[nH]c2ccccc12)NC(=O)[C@H](CCCCN)NC(=O)[C@@H]1CCC(=O)N1)C(=O)N1CCC[C@H]1C(=O)O [BPP5a, <GluLysTrpAlaPro] ([pGlu]KWAP-OH)",competitive substrates
